Measured values published in US7435834B2, “2-thia-dibenzoazulenes as inhibitors of tumour necrosis factor production and intermediates for the preparation thereof” (GlaxoSmithKline Istrazivacki Center Zagreb D.O.O., priority 2002, dated 2008).

System: TNF-α and IL-1 secretion
Test: investigated assays, not specified which (TNF-α/IL-1 secretion in human PBMC and mouse peritoneal macrophages in vitro, LPS-induced TNF-α/IL-1 secretion in mice, writhing assay, LPS-induced shock in mice)
Settings: assays not named; active means: IC50 20 μM or lower (human PBMC), IC50 10 μM or lower (mouse macrophages), 30% or more TNF-α inhibition at 10 mg/kg, analgetic activity as acetylsalicylic acid or better, survival 40% or more at 30 mg/kg
Procedure: The inhibitory action of the present compounds upon TNF-α and IL-1 secretion was determined by the following in vitro and in vivo experiments:
Determination of TNF-α and IL-1 Secretion in Human Peripheral Blood Mononuclear Cells in vitro
Human peripheral blood mononuclear cells (PBMC) were prepared from heparinized whole blood after separating PBMC on Ficoll-Paque™Plus (Amersham-Pharmacia). […] The IL-1 level was determined in an assay under the same conditions and with the same number of cells and the same concentration of stimuli stimulus by ELISA procedure (R&D Systems). The percentage of inhibition of TNF-α or IL-1 production was calculated by the equation: % inhibition=[1−(TS−NC)/(PC−NC)]*100. […]
In order to obtain peritoneal macrophages, Balb/C mouse strain males, age 8 to 12 weeks, were injected i.p. with 300 μg of zymosan (SIGMA) dissolved in a phosphate buffer (PBS) in a total volume of 0.1 ml/mouse. […] The TNF-α level in the cell supernatant was determined by ELISA procedure (R&D Systems, Biosource). The IL-1 level was determined in an assay identical to the assay for TNF-α by ELISA procedure (R&D Systems). The percentage of inhibition of TNF-α or IL-1 production was calculated by the equation: % inhibition=[1−(TS−NC)/(PC−NC)]*100. […]

O=Cc1scc2c1-c1ccccc1Sc1ccccc1-2 [Example 14, 2,8-Dithia-dibenzo[e,h]azulene-1-carbaldehyde]
activity in investigated assays: activity in at least two investigated assays
